Reference: patent US8821888B2, “Xylogone ganodermophthora strain with antifungal activity, and composition including same for preventing plant diseases” (The Director of Chungcheongbuk-Do Agricultural Research and …, priority 2013, dated 2014)

Test system: Sphaerotheca fusca
Assay: Control effect of sprayed extract on leaves of cucurbitaceous crops infected with Sphaerotheca fusca
Format: in vivo
Settings: 4,000 fold dilution, 7 days after spray
Protocol: The control effects of the extract of the cultured H55 strain prepared in Example 1 were measured. […] The extract was sprayed once at the initial stage of the development of Sphaerotheca fusca, and at 7 days after the spray of the extract, the control effect of the extract for each crop was measured.

With `CCCOC/C(=N\c1ccc(Cl)cc1C(F)(F)F)n1ccnc1` [Triflumizole] the Control value (Cucumbers) was 83.3, the Diseased leaf area (Cucumbers) was 10% and the Control value (Melons) was 42.9. For the same compound, the Diseased leaf area (Melons) was 40%, the Control value (Oriental melons) was 80.0 and the Diseased leaf area (Oriental melons) was 10%. It also gave a Control value (Pumpkins) of 62.5 and a Diseased leaf area (Pumpkins) of 30%.
